# Test results reported in PubChem BioAssay AID248 (DTP/NCI, 2004).
# Inconclusive results and toxic doses are left out.
# Test system: L1210 leukemia ip in BDF1 mice, survival T/C
# Assay: NCI In Vivo Anticancer Drug Screen. Data for tumor model L1210 Leukemia (intraperitoneal) in B6D2F1 (BDF1) mice
# Settings: endpoint: mean survival time, higher = longer survival
# In short: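 Tumor was transplanted into mice, which were then dosed with test compound or vehicle alone. Survival was recorded for each group, and the treated figure was expressed relative to the control figure.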
# [1] = dose: 100.0 mg/kg/injection, schedule: Q01DX001 (ip), vehicle: saline
# [2] = dose: 200.0 mg/kg/injection, schedule: Q01DX001 (ip), vehicle: saline
# [3] = dose: 400.0 mg/kg/injection, schedule: Q01DX001 (ip), vehicle: saline
# [4] = dose: 50.0 mg/kg/injection, schedule: Q01DX009 (ip), vehicle: other
# [5] = dose: 100.0 mg/kg/injection, schedule: Q01DX009 (ip), vehicle: other
# [6] = dose: 100.0 mg/kg/injection, schedule: Q01DX009 (ip), vehicle: Klucel (hydroxypropylcellulose) (HPC)
# [7] = dose: 200.0 mg/kg/injection, schedule: Q01DX009 (ip), vehicle: Klucel (hydroxypropylcellulose) (HPC)
# [8] = dose: 400.0 mg/kg/injection, schedule: Q01DX009 (ip), vehicle: Klucel (hydroxypropylcellulose) (HPC)
# [9] = dose: 100.0 mg/kg/injection, schedule: Q04DX003 (ip), vehicle: saline
# [10] = dose: 200.0 mg/kg/injection, schedule: Q04DX003 (ip), vehicle: saline
# [11] = dose: 400.0 mg/kg/injection, schedule: Q04DX003 (ip), vehicle: saline
# [12] = dose: 100.0 mg/kg/injection, schedule: Q01DX009 (ip), vehicle: saline with Tween-80
# [13] = dose: 200.0 mg/kg/injection, schedule: Q01DX009 (ip), vehicle: saline with Tween-80
# [14] = dose: 12.5 mg/kg/injection, schedule: Q04DX002 (ip), vehicle: saline
structure (smiles),measurement,setting,value
CCCCSC(C)(C)CC,T/C,"dose: 50.0 mg/kg/injection, schedule: Q01DX001 (ip), vehicle: saline",98 % of control
same,T/C,[1],93 % of control
same,T/C,[2],107 % of control
same,T/C,[3],104 % of control
C/C(=N\O)c1c[nH]c(=O)[nH]c1=O,T/C,"dose: 100.0 mg/kg/injection, schedule: Q04DX002 (ip), vehicle: Klucel (hydroxypropylcellulose) (HPC)",94 % of control
same,T/C,"dose: 200.0 mg/kg/injection, schedule: Q04DX002 (ip), vehicle: Klucel (hydroxypropylcellulose) (HPC)",103 % of control
CCCCCCCCCCCCNC(=O)c1ccccc1O,T/C,[4],96 % of control
same,T/C,[5],91 % of control
same,T/C,"dose: 400.0 mg/kg/injection, schedule: Q01DX009 (ip), vehicle: other",101 % of control
CCN(CC)CCNc1nc2ccc(C(=O)O)cc2s1,T/C,"dose: 75.0 mg/kg/injection, schedule: Q01DX001 (ip), vehicle: saline",100 % of control
same,T/C,"dose: 150.0 mg/kg/injection, schedule: Q01DX001 (ip), vehicle: saline",98 % of control
same,T/C,"dose: 300.0 mg/kg/injection, schedule: Q01DX001 (ip), vehicle: saline",94 % of control
O=C(Nc1cccnc1)c1ccc([N+](=O)[O-])s1,T/C,"dose: 50.0 mg/kg/injection, schedule: Q01DX005 (ip), vehicle: saline",102 % of control
same,T/C,"dose: 100.0 mg/kg/injection, schedule: Q01DX005 (ip), vehicle: saline",117 % of control
same,T/C,"dose: 400.0 mg/kg/injection, schedule: Q01DX005 (ip), vehicle: saline",173 % of control
CC(=O)c1c(O)cc(C)c(Cl)c1C,T/C,[6],94 % of control
same,T/C,[7],100 % of control
same,T/C,[8],103 % of control
CC1(C)/C(=C/c2ccccc2)C(=O)c2ccccc21,T/C,"dose: 100.0 mg/kg/injection, schedule: Q01DX009 (ip), vehicle: saline",101 % of control
same,T/C,[9],96 % of control
same,T/C,"dose: 200.0 mg/kg/injection, schedule: Q01DX009 (ip), vehicle: saline",96 % of control
same,T/C,[10],98 % of control
same,T/C,"dose: 400.0 mg/kg/injection, schedule: Q01DX009 (ip), vehicle: saline",102 % of control
same,T/C,[11],102 % of control
CC(C)(C)C(=O)CC(=O)C(C)(C)C.CC(C)(C)C(=O)CC(=O)C(C)(C)C.CC(C)(C)C(=O)CC(=O)C(C)(C)C.CC(C)(C)C(=O)CC(=O)C(C)(C)C.[Ce],T/C,[6],100 % of control
same,T/C,"dose: 100.0 mg/kg/injection, schedule: Q04DX003 (ip), vehicle: Klucel (hydroxypropylcellulose) (HPC)",103 % of control
same,T/C,[7],96 % of control
same,T/C,"dose: 200.0 mg/kg/injection, schedule: Q04DX003 (ip), vehicle: Klucel (hydroxypropylcellulose) (HPC)",94 % of control
same,T/C,[8],107 % of control
same,T/C,"dose: 400.0 mg/kg/injection, schedule: Q04DX003 (ip), vehicle: Klucel (hydroxypropylcellulose) (HPC)",106 % of control
N#CC12CC3CC(CC(C3)C1)C2,T/C,"dose: 5.0 mg/kg/injection, schedule: Q01DX009 (ip), vehicle: saline with Tween-80",104 % of control
same,T/C,"dose: 10.0 mg/kg/injection, schedule: Q01DX009 (ip), vehicle: saline with Tween-80",98 % of control
same,T/C,"dose: 20.0 mg/kg/injection, schedule: Q01DX001 (ip), vehicle: carboxymethylcellulose (CMC)",96 % of control
same,T/C,"dose: 20.0 mg/kg/injection, schedule: Q01DX009 (ip), vehicle: saline with Tween-80",112 % of control
same,T/C,"dose: 40.0 mg/kg/injection, schedule: Q01DX001 (ip), vehicle: carboxymethylcellulose (CMC)",95 % of control
same,T/C,"dose: 80.0 mg/kg/injection, schedule: Q01DX001 (ip), vehicle: carboxymethylcellulose (CMC)",96 % of control
O=C(O)C1(Cl)CC2C=CC1C2 (centres undefined),T/C,"dose: 50.0 mg/kg/injection, schedule: Q01DX009 (ip), vehicle: gum acacia",99 % of control
same,T/C,"dose: 50.0 mg/kg/injection, schedule: Q01DX009 (ip), vehicle: saline with Tween-80",93 % of control
same,T/C,"dose: 100.0 mg/kg/injection, schedule: Q01DX009 (ip), vehicle: gum acacia",89 % of control
same,T/C,[12],96 % of control
same,T/C,"dose: 100.0 mg/kg/injection, schedule: Q04DX003 (ip), vehicle: gum acacia",101 % of control
same,T/C,"dose: 100.0 mg/kg/injection, schedule: Q04DX003 (ip), vehicle: saline with Tween-80",93 % of control
same,T/C,"dose: 200.0 mg/kg/injection, schedule: Q01DX009 (ip), vehicle: gum acacia",92 % of control
same,T/C,[13],94 % of control
same,T/C,"dose: 200.0 mg/kg/injection, schedule: Q04DX003 (ip), vehicle: gum acacia",95 % of control
same,T/C,"dose: 200.0 mg/kg/injection, schedule: Q04DX003 (ip), vehicle: saline with Tween-80",91 % of control
CCC[As](=O)(O)C(C)C,T/C,[9],97 % of control
Cc1ccc(S(=O)(=O)[O][Pb]([CH3])([CH3])[CH3])cc1,T/C,"dose: 3.12 mg/kg/injection, schedule: Q01DX009 (ip), vehicle: saline",104 % of control
same,T/C,"dose: 3.12 mg/kg/injection, schedule: Q04DX002 (ip), vehicle: saline",108 % of control
same,T/C,"dose: 6.25 mg/kg/injection, schedule: Q01DX009 (ip), vehicle: saline",86 % of control
same,T/C,"dose: 6.25 mg/kg/injection, schedule: Q04DX002 (ip), vehicle: saline",108 % of control
same,T/C,[14],101 % of control
CCCCN(C)N=Nc1ccccc1C(=O)O,T/C,"dose: 6.25 mg/kg/injection, schedule: Q01DX009 (ip), vehicle: other",100 % of control
same,T/C,"dose: 12.5 mg/kg/injection, schedule: Q01DX009 (ip), vehicle: other",103 % of control
same,T/C,"dose: 25.0 mg/kg/injection, schedule: Q01DX009 (ip), vehicle: other",108 % of control
same,T/C,[4],110 % of control
same,T/C,[5],123 % of control
CCOC(=O)C(N=Nc1nn[nH]n1)C(C)=O (centres undefined),T/C,"dose: 100.0 mg/kg/injection, schedule: Q04DX003 (ip), vehicle: acetone",109 % of control
same,T/C,"dose: 200.0 mg/kg/injection, schedule: Q04DX003 (ip), vehicle: acetone",94 % of control
same,T/C,"dose: 400.0 mg/kg/injection, schedule: Q04DX003 (ip), vehicle: acetone",108 % of control
O=c1/c(=C\c2ccccc2Cl)sc2n1CCN=2,T/C,[1],100 % of control
same,T/C,[2],105 % of control
same,T/C,[3],105 % of control
CCOC(=O)C(c1ccccc1)(c1ccccc1)c1ccccc1,T/C,"dose: 6.25 mg/kg/injection, schedule: Q01DX009 (ip), vehicle: Klucel (hydroxypropylcellulose) (HPC)",90 % of control
same,T/C,"dose: 12.5 mg/kg/injection, schedule: Q01DX009 (ip), vehicle: Klucel (hydroxypropylcellulose) (HPC)",92 % of control
same,T/C,"dose: 25.0 mg/kg/injection, schedule: Q01DX009 (ip), vehicle: Klucel (hydroxypropylcellulose) (HPC)",95 % of control
N#CC1(C#N)OC12CCS(=O)(=O)c1ccccc12 (centres undefined),T/C,[1],88 % of control
same,T/C,[2],95 % of control
same,T/C,[3],101 % of control
Cc1nccn1-c1ccc(N=Cc2ccc(N(CCCl)CCCl)cc2Cl)cc1,T/C,"dose: 62.5 mg/kg/injection, schedule: Q04DX002 (ip), vehicle: Klucel (hydroxypropylcellulose) (HPC)",102 % of control
same,T/C,"dose: 125.0 mg/kg/injection, schedule: Q04DX002 (ip), vehicle: Klucel (hydroxypropylcellulose) (HPC)",98 % of control
same,T/C,"dose: 250.0 mg/kg/injection, schedule: Q04DX002 (ip), vehicle: Klucel (hydroxypropylcellulose) (HPC)",106 % of control
CN(C)CCCN=C(N)CCl,T/C,[14],101 % of control
same,T/C,"dose: 25.0 mg/kg/injection, schedule: Q04DX002 (ip), vehicle: saline",108 % of control
same,T/C,"dose: 50.0 mg/kg/injection, schedule: Q04DX002 (ip), vehicle: saline",87 % of control
same,T/C,"dose: 100.0 mg/kg/injection, schedule: Q04DX002 (ip), vehicle: saline",97 % of control
CC(C)c1ccc2cc(C(C)C)ccc2c1,T/C,[12],107 % of control
same,T/C,[13],92 % of control
same,T/C,"dose: 400.0 mg/kg/injection, schedule: Q01DX009 (ip), vehicle: saline with Tween-80",92 % of control
O=C(Nc1ccccc1)Sc1ccccc1,T/C,"dose: 62.5 mg/kg/injection, schedule: Q01DX001 (ip), vehicle: Klucel (hydroxypropylcellulose) (HPC)",97 % of control
CC(=O)OCC(=O)C1(O)CCC2C3CCC4CC(OC(C)=O)CCC4(C)C3CC(=O)C21C (centres undefined),T/C,"dose: 100.0 mg/kg/injection, schedule: Q01DX001 (ip), vehicle: other",106 % of control
same,T/C,"dose: 200.0 mg/kg/injection, schedule: Q01DX001 (ip), vehicle: other",101 % of control
same,T/C,"dose: 400.0 mg/kg/injection, schedule: Q01DX001 (ip), vehicle: other",102 % of control
C#CCC(C)OS(=O)(=O)c1ccc(C)cc1 (centres undefined),T/C,[1],98 % of control
same,T/C,[9],93 % of control
same,T/C,[2],102 % of control
same,T/C,[10],93 % of control
same,T/C,[3],98 % of control
same,T/C,[11],91 % of control
